For 26 molecules, CC50 and EC50 results are on record in patent US20190375708A1 (VenatoRx Pharmaceuticals, Inc., priority 2018, published 2019).

SMILES strings stand for the structures. pEC50: −log10 of the molar value.

Series [1] can be described thus: In vitro cytotoxicity assay (MTT cell viability) in HepG2 cells. The note with it: human. Format: cell-based, human. In a few lines:
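Viability measured by MTT conversion, absorbance at 492 nm, as percent of vehicle-treated wells. Compounds spanned 30 μM to 1.0 nM in half-log steps over a 7-day exposure of parental HepG2 cells; CC50 derived by 4-parameter curve fit.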

Series [2] relates to HBV replication in HepAD38 cells. The series can be described thus: Anti-HBV replication assay in HepAD38 cells (QPCR of extracellular HBV DNA). Format: cell-based, HBV (genotype D, serotype ayw). The note with it: Hepatitis B virus, 168 h, 7 days incubation, extracellular HBV DNA by QPCR, read-out: Anti-HBV EC50. A digest of the protocol:
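Steps: seed HepAD38 overnight without tetracycline; refresh medium and add 1 log10 serial dilutions ([…]); incubate 7 days at 37 °C; quantify supernatant HBV DNA by QPCR; derive EC50 from a 4-parameter dose-response fit.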

As a reminder, the CC50 is the concentration at which the toxic effect on the cells reaches its halfway point. Read a high CC50 as lower toxicity to the cells. As usually defined, the pEC50 is −log10 of the EC50, conventionally taken in molar units. `Cc1c(C(=O)Nc2ccc(F)cc2)c(C)n(C)c1C(=O)C(=O)N[C@H](C)C(F)(F)F` [Example 725, (R)-N-(4-fluorophenyl)-1,2,4-trimethyl-5-(2-oxo-2-((1,1,1-trifluoropropan-2-yl)amino)acetyl)-1H-pyrrole-3-carboxamide]: in series [1], the CC50 at 7 days was more than 30 µM. For the same molecule, the pEC50 in series [2] was more than 7.30.

For the molecule `Cc1c(C(=O)Nc2cncc(Cl)c2)c(C)n(C)c1C(=O)C(=O)N[C@H]1CC[C@@H](O)CC1` [Example 726, N-(5-chloropyridin-3-yl)-5-(2-(((1s,4s)-4-hydroxycyclohexyl)amino)-2-oxoacetyl)-1,2,4-trimethyl-1H-pyrrole-3-carboxamide], the CC50 at 7 days in series [1] was more than 30 µM. In series [2], the pEC50 was more than 7.30.

Regarding `Cc1c(C(=O)Nc2cncc(Cl)c2)c(C)n(C)c1C(=O)C(=O)N[C@H](C)C(F)(F)F` [Example 727, (R)-N-(5-chloropyridin-3-yl)-1,2,,4-trimethyl-5-(2-oxo-2-((1,1,1-trifluoropropan-2-yl)amino)acetyl)-1H-pyrrole-3-carboxamide], in series [1], the CC50 at 7 days is more than 30 µM. Also, in series [2], the pEC50 is more than 7.30.

On to `Cc1cc(NC(=O)c2c(C)c(C(=O)C(=O)NC3(C)CCN(c4cccnn4)CC3)n(C)c2C)ccc1F` [Example 728, N-(4-fluoro-3-methylphenyl)-1,2,4-trimethyl-5-(2-((4-methyl-1-(pyridazin-3-yl)piperidin-4-yl)amino)-2-oxoacetyl)-1H-pyrrole-3-carboxamide], for which the CC50 at 7 days in series [1] was more than 30 µM. Also, the pEC50 in series [2] was more than 7.30.

`CC[C@H](C)NC(=O)C(=O)c1c(Cl)c(C(=O)Nc2cnc(F)c(C)c2)c2n1CCCC2` [Example 729, (S)-3-(2-(sec-butylamino)-2-oxoacetyl)-2-chloro-N-(6-fluoro-5-methylpyridin-3-yl)-5,6,7,8-tetrahydroindolizine-1-carboxamide] showed a CC50 at 7 days in series [1] of more than 30 µM. Moreover, in series [2], the pEC50 is 6.30 to 7.30.

`Cc1cc(NC(=O)c2c(Cl)c(C(=O)C(=O)NC(C)(C)C(F)(F)F)n3c2CCCC3)cnc1F` [Example 730, 2-chloro-N-(6-fluoro-5-methylpyridin-3-yl)-3-(2-oxo-2-((1,1,1-trifluoro-2-methylpropan-2-yl)amino)acetyl)-5,6,7,8-tetrahydroindolizine-1-carboxamide]: the CC50 at 7 days in series [1] is more than 30 µM. In addition, the negative logarithm of the EC50 (pEC50) in series [2] is 6.30 to 7.30.

As for `Cc1cc(NC(=O)c2c(Cl)c(C(=O)C(=O)N[C@@H](C)C(F)(F)F)n3c2CCCC3)cnc1F` [Example 731, (S)-2-chloro-N-(6-fluoro-5-methylpyridin-3-yl)-3-(2-oxo-2-((1,1,1-trifluoropropan-2-yl)amino)acetyl)-5,6,7,8-tetrahydroindolizine-1-carboxamide], in series [1], the 50% cytotoxic concentration (CC50) at 7 days was 5 to 30 µM. Moreover, the pEC50 in series [2] was more than 7.30.

`Cc1cc(NC(=O)c2c(Cl)c(C(=O)C(=O)N[C@H](C)C(F)(F)F)n3c2CCCC3)cnc1F` [Example 732] showed a CC50 at 7 days in series [1] of more than 30 µM. For the same molecule, the pEC50 in series [2] was 6.30 to 7.30.

As for `CC[C@H](C)NC(=O)C(=O)c1c(Cl)c(C(=O)Nc2cnc(F)c(C)c2)c2n1CCC2` [Example 733, (S)-5-(2-(sec-butylamino)-2-oxoacetyl)-6-chloro-N-(6-fluoro-5-methylpyridin-3-yl)-2,3-dihydro-1H-pyrrolizine-7-carboxamide], in series [1], the cytotoxic concentration (CC50) at 7 days fell in the range of 5 to 30 µM. Besides, in series [2], the pEC50 is more than 7.30.

The molecule `Cc1cc(NC(=O)c2c(Cl)c(C(=O)C(=O)NCc3cnc(N)s3)n3c2CCC3)cnc1F` [Example 734, 5-(2-(((2-aminothiazol-5-yl)methyl)amino)-2-oxoacetyl)-6-chloro-N-(6-fluoro-5-methylpyridin-3-yl)-2,3-dihydro-1H-pyrrolizine-7-carboxamide] yielded a CC50 at 7 days in series [1] of more than 30 µM. The pEC50 in series [2] was more than 7.30.

Molecule `Cc1noc([C@@H](C)NC(=O)C(=O)c2c(Cl)c(C(=O)Nc3cnc(F)c(C)c3)c3n2CCC3)n1` [Example 735, (R)-6-chloro-N-(6-fluoro-5-methylpyridin-3-yl)-5-(2-((1-(3-methyl-1,2,4-oxxadiazol-5-yl)ethyl)amino)-2-oxoacetyl)-2,3-dihydro-1H-pyrrolizine-7-carboxamide] registered a CC50 at 7 days in series [1] of 5 to 30 µM. The negative-log EC50 (pEC50) in series [2] is 6.30 to 7.30.

For `Cc1noc([C@H](C)NC(=O)C(=O)c2c(Cl)c(C(=O)Nc3cnc(F)c(C)c3)c3n2CCC3)n1` [Example 736, (S)-6-chloro-N-(6-luoro-5-methylpyridin-3-yl)-5-(2-((1-(3-methyl-1,2,4-oxadiazol-5-yl)ethyl)amino)-2-oxoacetyl)-2,3-dihydro-1H-pyrrolizine-7-carboxamide], the cytotoxic concentration (CC50) at 7 days in series [1] was 5 to 30 µM. Further, the pEC50 in series [2] was more than 7.30.

The molecule `Cc1cc(NC(=O)c2c(C)c(C(=O)C(=O)N[C@]3(C)CC[C@H](O)CC3)n3c2CCCC3)ccc1F` [Example 737, N-(4-fluoro-3-methylphenyl)-3-(2-(((1s,4s)-4-hydroxy-1-methylcyclohexyl)amino)-2-oxoacetyl)-2-methyl-5,6,7,8-tetrahydroindolizine-1-carboxamide] registered a CC50 at 7 days in series [1] of more than 30 µM. Further, the pEC50 in series [2] is more than 7.30.

For `Cc1c(C(=O)Nc2ccc(F)c(F)c2)c2n(c1C(=O)C(=O)Nc1ccc(B(O)O)cc1)CCCC2` [Example 738, (4-(2-(1-((3,4-difluorophenyl)carbamoyl)-2-methyl-5,6,7,8-tetrahdyroindolizin-3-yl)-2-oxoacetamido)phenyl)boronic acid], the CC50 at 7 days in series [1] is more than 30 µM. Further, the pEC50 in series [2] is 6.30 to 7.30.

Molecule `Cc1cc(NC(=O)c2c(C)c(C(=O)C(=O)Nc3cccnc3)n3c2CCCC3)ccc1F` [Example 739, N-(4-fluoro-3-methylphenyl)-2-methyl-3-(2-oxo-2-(pyridin-3-ylamino)acetyl)-5,6,7,8-tetrahydroindolizine-1-carboxamide] yielded a CC50 at 7 days in series [1] of more than 30 µM. Moreover, the pEC50 in series [2] was 6.30 to 7.30.

Consider `Cc1cc(NC(=O)c2c(C)c(C(=O)C(=O)N[C@H]3CC[C@](C)(O)CC3)n3c2CCCC3)ccc1F` [Example 740, N-(4-fluoro-3-methylphenyl)-3-(2-(((1r,4r)-4-hydroxy-4-methylcyclohexyl)amino)-2-oxoacetyl)-2-methyl-5,6,7,8-tetrahydroindolizine-1-carboxamide], for which the CC50 at 7 days in series [1] was more than 30 µM. The pEC50 in series [2] is more than 7.30.

As for `Cc1c(C(=O)Nc2ccc(F)c(F)c2)c2n(c1C(=O)C(=O)NCCN)CCCC2` [Example 741, 3-(2-((2-aminoethyl)amino)-2-oxoacetyl)-N-(3,4-difluorophenyl)-2-methyl-5,6,7,8-tetrahydroindolizine-1-carboxamide], the CC50 at 7 days in series [1] is more than 30 µM. Besides, the pEC50 in series [2] was 6.30 to 7.30.

As for `Cc1c(C(=O)Nc2ccc(F)c(F)c2)c2n(c1C(=O)C(=O)NC1(C)CCNCC1)CCCC2` [Example 742], in series [1], the CC50 at 7 days is more than 30 µM. For the same molecule, the pEC50 in series [2] is 6.30 to 7.30.

Consider `Cc1c(C(=O)Nc2ccc(F)c(F)c2)c2n(c1C(=O)C(=O)NC1(c3nn[nH]n3)CCCC1)CCCC2` [Example 743, 3-(22-((1-(2H-tetrazol-5-yl)cyclopentyl)amino)-2-oxoacetyl)-N-(3,4-difluorophenyl)-2-methyl-5,6,7,8-tetrahydroindolizine-1-carboxamide], for which the CC50 at 7 days in series [1] was more than 30 µM. The pEC50 in series [2] is 6.30 to 7.30.

For the molecule `Cc1c(C(=O)NC2CCC(F)(F)C2)c2n(c1C(=O)C(=O)NC1(CO)CCC1)CCCC2` (stereo not shown) [Example 744, N-(3,3-difluorocyclopentyl)-3-(2-((1-(hydroxymethyl)cyclobutyl)amino)-2-oxoacetyl)-2-methyl-5,6,7,8-tetrahdyroindolizine-1-carboxamide], the CC50 at 7 days in series [1] was more than 30 µM. Moreover, the negative-log EC50 (pEC50) in series [2] was 6.30 to 7.30.

`Cc1c(C(=O)NC2(C)CCCC2)c2n(c1C(=O)C(=O)NC1(CO)CCC1)CCCC2` [Example 745, 3-(2-((1-(hydroxymethyl)cyclobutyl)amino)-2-oxoacetyl)-2-methyl-N-(1-methylcyclopentyl)-5,6,7,8-tetrahdyroindolizine-1-carboxamide] returned a CC50 at 7 days in series [1] of more than 30 µM. Also, in series [2], the pEC50 is 6.30 to 7.30.

In series [1], `Cc1c(C(=O)NC2CCCC2)c2n(c1C(=O)C(=O)NC1(CO)CCC1)CCCC2` [Example 746, N-cyclopentyl-3-(2-((1-(hydroxymethyl)cyclobutyl)amino)-2-oxoacetyl)-2-methyl-5,6,7,8-tetrahydroindolizine-1-carboxamide] had a CC50 at 7 days of more than 30 µM. In series [2], the pEC50 was 6.30 to 7.30.

Regarding `Cc1c(C(=O)Nc2ccn(C)n2)c2n(c1C(=O)C(=O)NC1(CO)CCC1)CCCC2` [Example 748, 3-(2-((1-(hydroxymethyl)cyclobutyl)amino)-2-oxoacetyl)-2-methyl-N-(1-methyl-1H-pyrazol-3-yl)-5,6,7,8-tetrahydroindolizine-1-carboxamide], the CC50 at 7 days in series [1] is more than 30 µM. In series [2], the pEC50 was 6.30 to 7.30.

As for `Cc1c(C(=O)Nc2ncc(C(F)(F)F)s2)c2n(c1C(=O)C(=O)NC1(CO)CCC1)CCCC2` [Example 749, 3-(2-((1-(hydroxymethyl)cyclobutyl)amino)-2-oxoacetyl)-2-methyl-N-(5-(trifluoromethyl)thiazol-2-yl)-5,6,7,8-tetrahydroindolizine-1-carboxamide], in series [1], the CC50 at 7 days is more than 30 µM. In addition, the negative logarithm of the EC50 (pEC50) in series [2] was 6.30 to 7.30.

As for `Cc1cnc(NC(=O)c2c(C)c(C(=O)C(=O)NC3(CO)CCC3)n3c2CCCC3)s1` [Example 750], the CC50 at 7 days in series [1] is more than 30 µM. Further, in series [2], the pEC50 is 6.30 to 7.30.

For the molecule `Cc1c(C(=O)Nc2nccs2)c2n(c1C(=O)C(=O)NC1(CO)CCC1)CCCC2` [Example 751], the half-maximal cytotoxic concentration (CC50) at 7 days in series [1] was more than 30 µM. The pEC50 in series [2] was 6.30 to 7.30.
